Experimental data as given in patent US10787442B2, “Modulators of indoleamine 2,3-dioxygenase” (GLAXOSMITHKLINE INTELLECTUAL PROPERTY DEVELOPMENT LIMITED, priority 2016, dated 2020).
Read-outs that look alike come from different tables or passages of the source.

Experiments:
ePL tagged IDO1 = biological target: T1, ePL tagged IDO1 (Homo sapiens, UniProt P14902); assay: CETSA (Cellular Thermal Shifting assay); assay type: binding; conditions: Hela cells, 3 hours at 37° C., heated at 53° C. for 3 min
T1 construct: expressed in transfected cells; host or cells: HeLa cells transduced with BacMam virus
Method: Cellular Thermal Shifting assays were used to directly monitor the ligand binding to target proteins in cells. Hela cells were transduced with BacMam virus expressing ePL tagged IDO1 overnight. The cells were then plated over the compounds for 3 hours at 37° C. in cell culture medium containing 1% FBS. The plates were then sealed and heated at 53° C. for 3 min. InCell Hunter reagents were added and luminescence was read in 90 min.

[1] = Toxicokinetics in Beagle dogs, 7 day repeat oral administration; assay type: in vivo, Beagle dog; conditions: for Tmax / Cmax / AUC(0-t): Beagle, dog, plasma; for Therapeutic Index AUC (0-12 hr): versus predicted human efficacious AUC; for Therapeutic Index Cmax: versus predicted human efficacious Cmax; for Cmax / AUC(0-t): po; for AUC(0-t): read-out: AUC (0-12 hr)
Source text: To understand its toxicokinetics and potential effect on hepatic functions, EXAMPLE 6 was orally dosed to Beagle dogs for 7 consecutive days.

[2] = female, 20 mg/kg, Day1, Female, 20 mg/kg PO BID
[3] = female, 20 mg/kg, Day7, Female, 20 mg/kg PO BID
[4] = male, 20 mg/kg, Day1, Male, 20 mg/kg PO BID
[5] = male, 20 mg/kg, Day7, Male, 20 mg/kg PO BID

T1 sequence (P14902 whole entry): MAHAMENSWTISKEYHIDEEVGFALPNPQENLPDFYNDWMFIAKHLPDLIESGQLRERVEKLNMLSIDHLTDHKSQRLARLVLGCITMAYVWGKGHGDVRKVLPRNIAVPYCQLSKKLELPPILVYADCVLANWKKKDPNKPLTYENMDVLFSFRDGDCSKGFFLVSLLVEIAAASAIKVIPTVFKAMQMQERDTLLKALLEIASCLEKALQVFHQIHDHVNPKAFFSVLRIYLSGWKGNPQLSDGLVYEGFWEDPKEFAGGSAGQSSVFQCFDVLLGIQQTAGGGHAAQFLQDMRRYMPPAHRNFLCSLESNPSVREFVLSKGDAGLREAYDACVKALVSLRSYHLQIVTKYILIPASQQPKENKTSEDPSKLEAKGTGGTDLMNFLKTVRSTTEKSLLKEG

Question: For `CC(C)CN(c1ncc([C@H](C)CC(=O)O)cc1Nc1ccc(Cl)cn1)C1CCOCC1` [Example 6, (R)-3-(5-((5-chloropyridin-2-yl)amino)-6-(isobutyl(tetrahydro-2H-pyran-4-yl)amino)pyridin-3-yl)butanoic acid], which EC50 (ePL tagged IDO1; first value, read-out: pXC50_1 (converted)) is on record?
Answer: Its EC50 is 575 nM.

Question: And the EC50 (ePL tagged IDO1; second value, read-out: pXC50_2 (converted))?
Answer: The EC50 was 759 nM.

Question: And the Tmax ([1]; oral, 20 mg/kg, post dose on Days 1 and 7)?
Answer: The Tmax was 30 min.

Question: And the Tmax ([1]; Day1, Female, 20 mg/kg PO BID)?
Answer: Its Tmax is 30 min.

Question: What about the Tmax ([1]; Day1, Male, 20 mg/kg PO BID) of the same compound?
Answer: Its Tmax is 30 min.

Question: What about the “Therapeutic Index AUC (0-12 hr)” value ([1]; Day1, Female, 20 mg/kg) of the same compound?
Answer: Its value is 15.

Question: And the “Therapeutic Index Cmax” value ([1]; Day1, Female, 20 mg/kg)?
Answer: Its value is 86.

Question: What about the “Therapeutic Index AUC (0-12 hr)” value ([1]; Day1, Male, 20 mg/kg) of the same compound?
Answer: The value was 25.

Question: What about the “Therapeutic Index Cmax” value ([1]; Day1, Male, 20 mg/kg) of the same compound?
Answer: Its value is 237.

Question: What about the “average therapeutic coverage in AUC for the predicted human efficacious dose” value ([1]; Day 7) of the same compound?
Answer: Its value is roughly 34 fold.

Question: And the “average therapeutic coverage in Cmax for the predicted human efficacious dose” value ([1]; Day 7)?
Answer: The value was roughly 147 fold.

Question: What about the “Therapeutic Index AUC (0-12 hr)” value ([1]; Day7, Female, 20 mg/kg) of the same compound?
Answer: The value was 51.

Question: What about the “Therapeutic Index Cmax” value ([1]; Day7, Female, 20 mg/kg) of the same compound?
Answer: Its value is 102.

Question: What about the “Therapeutic Index AUC (0-12 hr)” value ([1]; Day7, Male, 20 mg/kg) of the same compound?
Answer: Its value is 18.

Question: And the “Therapeutic Index Cmax” value ([1]; Day7, Male, 20 mg/kg)?
Answer: Its value is 191.

Question: What about the “quantifiable in plasma post the start of the oral dose” value ([1]; Days 1 and 7) of the same compound?
Answer: Its value is “up to 24 hours”.

Question: What about the “Cmax on Days 1 and 7” value ([1]; female dog) of the same compound?
Answer: Its value is “comparable”.

Question: And the “increase in AUC0-12 following 7 day repeat dosing” value ([1]; female dog)?
Answer: The value was roughly 3 fold.

Question: What about the Cmax [1, 2] of the same compound?
Answer: Its Cmax is 3700 ng/mL.

Question: And the AUC(0-t) [1, 2]?
Answer: The AUC(0-t) was 5200 ng·h/mL.

Question: And the Cmax [1, 3]?
Answer: The Cmax was 4400 ng/mL.

Question: What about the AUC(0-t) [1, 3] of the same compound?
Answer: Its AUC(0-t) is 17900 ng·h/mL.

Question: And the “systemic exposure (Cmax and AUC0-12 values) on Days 1 and 7” value ([1]; male dog)?
Answer: Its value is “similar”.

Question: And the Cmax [1, 4]?
Answer: The Cmax was 10200 ng/mL.

Question: And the AUC(0-t) [1, 4]?
Answer: Its AUC(0-t) is 8700 ng·h/mL.

Question: What about the Cmax [1, 5] of the same compound?
Answer: The Cmax was 8200 ng/mL.

Question: And the AUC(0-t) [1, 5]?
Answer: Its AUC(0-t) is 6500 ng·h/mL.
